Test results reported in patent US20240269139A1, “COMPOUNDS FOR TARGETED PROTEIN DEGRADATION OF KINASES” (DANA-FARBER CANCER INSTITUTE, INC., priority 2020, published 2024).
Read-outs that look alike come from different tables or passages of the source.

Tests used:
Type in all cases: cell-based
[1] = target: protein kinases (human kinome) (Homo sapiens, UniProt Q8N5S9); details: experiment wp117
[2] = target: protein kinases (human kinome) (Homo sapiens, UniProt O60307); details: experiment wp107
Chain of protein kinases (human kinome) (Homo sapiens, UniProt O60307) (O60307 whole entry): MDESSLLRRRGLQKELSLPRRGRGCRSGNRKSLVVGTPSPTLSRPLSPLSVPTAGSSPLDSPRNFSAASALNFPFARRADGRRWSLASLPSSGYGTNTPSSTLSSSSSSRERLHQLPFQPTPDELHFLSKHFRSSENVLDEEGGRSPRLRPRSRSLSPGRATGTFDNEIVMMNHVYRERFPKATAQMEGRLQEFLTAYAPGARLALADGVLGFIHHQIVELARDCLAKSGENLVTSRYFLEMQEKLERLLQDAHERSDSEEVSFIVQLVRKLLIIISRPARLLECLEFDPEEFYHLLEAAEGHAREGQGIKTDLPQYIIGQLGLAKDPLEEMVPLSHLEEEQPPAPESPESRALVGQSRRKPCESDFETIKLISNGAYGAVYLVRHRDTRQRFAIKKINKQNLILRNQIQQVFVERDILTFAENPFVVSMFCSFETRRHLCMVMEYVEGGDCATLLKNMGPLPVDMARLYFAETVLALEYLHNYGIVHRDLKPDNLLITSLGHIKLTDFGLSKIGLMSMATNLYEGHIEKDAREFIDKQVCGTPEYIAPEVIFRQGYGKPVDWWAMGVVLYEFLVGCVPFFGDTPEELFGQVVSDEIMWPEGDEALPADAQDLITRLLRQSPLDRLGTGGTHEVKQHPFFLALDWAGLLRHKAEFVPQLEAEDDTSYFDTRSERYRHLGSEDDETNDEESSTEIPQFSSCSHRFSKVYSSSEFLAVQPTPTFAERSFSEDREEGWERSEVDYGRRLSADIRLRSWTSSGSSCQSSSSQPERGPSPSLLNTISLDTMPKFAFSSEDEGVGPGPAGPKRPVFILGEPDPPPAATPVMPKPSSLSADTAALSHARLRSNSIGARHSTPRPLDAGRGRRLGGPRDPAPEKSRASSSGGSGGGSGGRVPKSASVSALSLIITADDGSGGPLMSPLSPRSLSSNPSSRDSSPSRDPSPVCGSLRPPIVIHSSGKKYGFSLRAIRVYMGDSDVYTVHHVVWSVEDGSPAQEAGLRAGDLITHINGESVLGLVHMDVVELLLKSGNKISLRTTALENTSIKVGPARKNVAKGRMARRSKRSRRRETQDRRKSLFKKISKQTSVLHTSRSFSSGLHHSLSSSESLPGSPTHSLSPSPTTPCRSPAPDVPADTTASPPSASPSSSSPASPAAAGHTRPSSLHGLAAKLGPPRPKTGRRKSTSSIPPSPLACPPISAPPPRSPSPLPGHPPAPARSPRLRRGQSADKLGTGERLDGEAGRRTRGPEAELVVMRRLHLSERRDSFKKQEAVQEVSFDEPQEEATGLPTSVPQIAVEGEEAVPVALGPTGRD

[3] = target: protein kinases (human kinome) (Homo sapiens, UniProt Q86UX6)
Chain of protein kinases (human kinome) (Homo sapiens, UniProt Q86UX6) (Q86UX6 whole entry): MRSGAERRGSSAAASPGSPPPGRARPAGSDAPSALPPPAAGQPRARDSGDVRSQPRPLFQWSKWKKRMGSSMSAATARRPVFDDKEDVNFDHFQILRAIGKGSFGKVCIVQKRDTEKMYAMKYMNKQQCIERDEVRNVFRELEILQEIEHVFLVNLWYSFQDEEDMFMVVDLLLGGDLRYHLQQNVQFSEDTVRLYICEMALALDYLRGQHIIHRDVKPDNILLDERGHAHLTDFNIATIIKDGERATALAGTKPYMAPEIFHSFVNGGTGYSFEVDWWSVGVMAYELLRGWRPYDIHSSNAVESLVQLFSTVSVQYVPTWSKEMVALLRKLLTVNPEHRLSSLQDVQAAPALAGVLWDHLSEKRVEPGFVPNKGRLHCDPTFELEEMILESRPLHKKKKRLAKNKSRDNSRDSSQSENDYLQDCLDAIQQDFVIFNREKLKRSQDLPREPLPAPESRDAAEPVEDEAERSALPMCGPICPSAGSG

[4] = target: protein kinases (human kinome) (Homo sapiens, UniProt Q96GD4); details: for logFC AURKB: AURKB Q96GD4
Chain of protein kinases (human kinome) (Homo sapiens, UniProt Q96GD4) (Q96GD4 whole entry): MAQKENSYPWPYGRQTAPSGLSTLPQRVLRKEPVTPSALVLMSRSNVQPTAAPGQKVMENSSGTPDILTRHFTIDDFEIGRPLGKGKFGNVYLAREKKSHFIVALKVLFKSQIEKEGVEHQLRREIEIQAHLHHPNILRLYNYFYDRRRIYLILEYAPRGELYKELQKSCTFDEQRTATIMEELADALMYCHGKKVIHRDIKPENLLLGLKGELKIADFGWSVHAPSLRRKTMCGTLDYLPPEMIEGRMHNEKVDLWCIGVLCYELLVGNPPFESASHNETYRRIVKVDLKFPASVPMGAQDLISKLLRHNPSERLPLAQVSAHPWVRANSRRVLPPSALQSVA

[5] = target: protein kinases (human kinome) (Homo sapiens, UniProt P51956); details: experiment wp146
Chain of protein kinases (human kinome) (Homo sapiens, UniProt P51956) (P51956 whole entry): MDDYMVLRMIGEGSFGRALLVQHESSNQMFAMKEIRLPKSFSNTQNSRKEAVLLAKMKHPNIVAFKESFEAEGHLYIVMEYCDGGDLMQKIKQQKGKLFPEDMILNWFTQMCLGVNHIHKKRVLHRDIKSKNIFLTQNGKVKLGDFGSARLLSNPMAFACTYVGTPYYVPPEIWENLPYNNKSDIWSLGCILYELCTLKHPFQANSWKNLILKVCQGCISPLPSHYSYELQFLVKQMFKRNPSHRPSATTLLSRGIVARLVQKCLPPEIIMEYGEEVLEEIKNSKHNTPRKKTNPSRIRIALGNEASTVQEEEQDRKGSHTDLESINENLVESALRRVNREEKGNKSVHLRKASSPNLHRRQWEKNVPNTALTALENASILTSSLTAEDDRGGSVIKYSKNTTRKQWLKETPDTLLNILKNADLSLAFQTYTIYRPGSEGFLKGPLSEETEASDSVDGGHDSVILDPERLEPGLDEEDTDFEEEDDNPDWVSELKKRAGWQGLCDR

[6] = target: protein kinases (human kinome) (Homo sapiens, UniProt Q9UHD2); details: experiment wp146
Chain of protein kinases (human kinome) (Homo sapiens, UniProt Q9UHD2) (Q9UHD2 whole entry): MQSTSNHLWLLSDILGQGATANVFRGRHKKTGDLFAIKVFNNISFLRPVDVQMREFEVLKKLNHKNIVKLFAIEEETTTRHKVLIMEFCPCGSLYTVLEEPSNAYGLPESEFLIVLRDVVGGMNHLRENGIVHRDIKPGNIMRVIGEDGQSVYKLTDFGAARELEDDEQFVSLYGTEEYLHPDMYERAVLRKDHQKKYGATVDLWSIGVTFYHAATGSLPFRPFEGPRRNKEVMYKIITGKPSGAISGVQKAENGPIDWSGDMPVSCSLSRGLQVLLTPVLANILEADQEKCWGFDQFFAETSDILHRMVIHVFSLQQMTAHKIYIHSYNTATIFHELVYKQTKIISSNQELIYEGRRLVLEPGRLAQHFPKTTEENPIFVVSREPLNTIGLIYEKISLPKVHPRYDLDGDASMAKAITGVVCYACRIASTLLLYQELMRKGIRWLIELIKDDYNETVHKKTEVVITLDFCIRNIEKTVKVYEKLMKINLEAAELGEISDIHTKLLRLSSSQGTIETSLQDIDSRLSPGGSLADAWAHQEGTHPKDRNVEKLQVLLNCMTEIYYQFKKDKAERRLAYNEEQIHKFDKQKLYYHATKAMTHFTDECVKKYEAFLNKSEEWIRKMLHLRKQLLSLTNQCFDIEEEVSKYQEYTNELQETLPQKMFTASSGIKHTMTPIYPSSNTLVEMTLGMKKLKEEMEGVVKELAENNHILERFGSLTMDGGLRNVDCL

[7] = target: T1, protein kinases (human kinome) (Homo sapiens, UniProt Q9UQ88); details: experiment wp105
T1 sequence (Q9UQ88 1-783): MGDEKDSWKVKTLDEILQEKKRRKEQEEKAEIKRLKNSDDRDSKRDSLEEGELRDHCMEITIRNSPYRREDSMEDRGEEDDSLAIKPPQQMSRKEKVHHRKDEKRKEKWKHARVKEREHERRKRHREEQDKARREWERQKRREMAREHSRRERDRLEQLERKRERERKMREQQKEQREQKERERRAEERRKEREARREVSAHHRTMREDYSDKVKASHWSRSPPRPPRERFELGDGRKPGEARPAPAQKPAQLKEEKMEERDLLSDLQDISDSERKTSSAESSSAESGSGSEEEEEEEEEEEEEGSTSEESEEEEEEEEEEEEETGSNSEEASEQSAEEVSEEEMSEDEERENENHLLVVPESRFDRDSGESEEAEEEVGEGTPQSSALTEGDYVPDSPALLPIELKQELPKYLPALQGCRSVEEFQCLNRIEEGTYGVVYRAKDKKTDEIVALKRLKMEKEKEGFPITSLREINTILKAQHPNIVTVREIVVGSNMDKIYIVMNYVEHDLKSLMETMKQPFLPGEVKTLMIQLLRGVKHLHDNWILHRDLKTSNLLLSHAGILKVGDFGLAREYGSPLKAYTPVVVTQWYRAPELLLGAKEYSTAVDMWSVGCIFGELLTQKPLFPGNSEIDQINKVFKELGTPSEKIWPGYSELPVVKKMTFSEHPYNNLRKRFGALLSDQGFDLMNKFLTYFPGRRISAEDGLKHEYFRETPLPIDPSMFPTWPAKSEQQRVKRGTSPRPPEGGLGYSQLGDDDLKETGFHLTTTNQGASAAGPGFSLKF

[8] = target: protein kinases (human kinome) (Homo sapiens, UniProt Q96S53); details: experiment wp147, 4 uM
[9] = target: protein kinases (human kinome) (Homo sapiens, UniProt O00418); details: experiment wp137
[10] = target: protein kinases (human kinome) (Homo sapiens, UniProt Q8TEA7); details: experiment wp056
[11] = target: protein kinases (human kinome) (Homo sapiens, UniProt Q16760); details: protein DGKD (Q16760-1); experiment wp045; down
[12] = target: protein kinases (human kinome) (Homo sapiens, UniProt Q8N4C8); details: experiment wp107
Chain of protein kinases (human kinome) (Homo sapiens, UniProt Q8N4C8) (Q8N4C8 whole entry): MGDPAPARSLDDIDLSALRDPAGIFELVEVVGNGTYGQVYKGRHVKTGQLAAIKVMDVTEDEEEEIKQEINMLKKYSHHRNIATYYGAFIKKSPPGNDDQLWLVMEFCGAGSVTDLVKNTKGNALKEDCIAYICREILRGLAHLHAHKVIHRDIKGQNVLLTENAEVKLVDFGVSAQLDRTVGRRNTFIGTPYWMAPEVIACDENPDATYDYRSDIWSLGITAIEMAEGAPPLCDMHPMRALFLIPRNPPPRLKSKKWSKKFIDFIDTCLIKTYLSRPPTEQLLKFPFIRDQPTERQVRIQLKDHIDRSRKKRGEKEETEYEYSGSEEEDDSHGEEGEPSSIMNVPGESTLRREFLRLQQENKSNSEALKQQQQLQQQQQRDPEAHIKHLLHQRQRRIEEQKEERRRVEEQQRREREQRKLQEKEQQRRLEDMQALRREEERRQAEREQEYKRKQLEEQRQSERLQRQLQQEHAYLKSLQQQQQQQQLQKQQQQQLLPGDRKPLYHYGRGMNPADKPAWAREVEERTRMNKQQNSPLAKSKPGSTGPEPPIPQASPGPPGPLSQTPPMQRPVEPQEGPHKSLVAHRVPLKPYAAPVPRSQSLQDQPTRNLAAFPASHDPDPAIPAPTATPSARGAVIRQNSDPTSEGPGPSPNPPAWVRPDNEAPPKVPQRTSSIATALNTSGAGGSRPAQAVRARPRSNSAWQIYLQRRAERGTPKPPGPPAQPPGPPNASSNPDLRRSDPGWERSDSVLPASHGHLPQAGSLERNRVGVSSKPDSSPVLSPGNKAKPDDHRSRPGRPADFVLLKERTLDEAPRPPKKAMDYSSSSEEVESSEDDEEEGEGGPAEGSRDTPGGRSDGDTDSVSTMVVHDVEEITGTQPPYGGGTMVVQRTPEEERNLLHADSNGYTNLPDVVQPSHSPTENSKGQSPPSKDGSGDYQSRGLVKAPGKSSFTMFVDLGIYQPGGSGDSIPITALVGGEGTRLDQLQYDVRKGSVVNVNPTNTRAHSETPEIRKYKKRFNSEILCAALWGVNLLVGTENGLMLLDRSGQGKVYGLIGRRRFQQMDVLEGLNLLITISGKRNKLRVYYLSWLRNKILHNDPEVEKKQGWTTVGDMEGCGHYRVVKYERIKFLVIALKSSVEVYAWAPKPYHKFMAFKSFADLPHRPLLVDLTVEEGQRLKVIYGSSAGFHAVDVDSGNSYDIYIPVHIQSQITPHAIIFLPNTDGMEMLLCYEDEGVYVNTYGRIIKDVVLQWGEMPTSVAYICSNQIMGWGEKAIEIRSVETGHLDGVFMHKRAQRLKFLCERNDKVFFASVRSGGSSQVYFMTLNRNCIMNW

CS(=O)(=O)Nc1cccc(-c2csc3cnc(Nc4ccc(N5CCN(CCCCCOc6cccc7c6C(=O)N(C6CCC(=O)NC6=O)C7=O)CC5)cc4)nc23)c1 (stereo not shown) [DB0614, N-(3-(2-((4-(4-(5-((2-(2,6-Dioxopiperidin-3-yl)-1,3-dioxoisoindolin-4-yl)oxy)pentyl)piperazin-1-yl)phenyl)amino)thieno[3,2-d]pyrimidin-7-yl)phenyl)methanesulfonamide]
logFC ([1]; CAMKK1 (Q8N5S9)): −0.471
logFC CAMKK1 (Q8N5S9) ([1]; direction of change down): −0.471

CC(C)S(=O)(=O)c1ccccc1Nc1nc(Nc2ccc(N3CCN(CCOCCNC(=O)CNc4cccc5c4C(=O)N(C4CCC(=O)NC4=O)C5=O)CC3)cc2)ncc1Cl (stereo not shown) [SK.3.91]
logFC MAST3 (O60307) ([2]; direction of change down): −0.4984
logFC MAST3 ([2]; protein MAST3 (O60307), down): −0.4984
logFC STK32C (Q86UX6) ([3]; Experiment wp114, direction of change down): −0.6189
logFC STK32C ([3]; protein STK32C (Q86UX6), experiment wp114, down): −0.6189
logFC AURKB ([4]; experiment wp160, 4 hr): −0.4984
logFC AURKB ([4]; experiment wp172): −1.11
logFC of AURKB (Q96GD4) ([4]; Experiment wp172): −1.11
logFC of AURKB (Q96GD4) ([4]; experiment wp160, 4 hr): −0.4984

Cc1cc(Nc2ncc(Br)c(Nc3cccc(F)c3C(N)=O)n2)ccc1S(=O)(=O)NCCOCCOCCOCCOCCNc1cccc2c1C(=O)N(C1CCC(=O)NC1=O)C2=O (stereo not shown) [TMX.02.174]
logFC NEK3 (P51956) ([5]; direction of change down): −0.8497
logFC NEK3 ([5]; protein NEK3 (P51956), down): −0.8497
logFC TBK1 (Q9UHD2) ([6]; direction of change down): −0.5951
logFC TBK1 ([6]; protein TBK1 (Q9UHD2), down): −0.5951

Cc1ccc(NC(=O)c2cccc(C(F)(F)F)c2)cc1N1Cc2cnc(Nc3ccc(N4CCN(Cc5cn(CCCCCOc6cccc7c6C(=O)N(C6CCC(=O)NC6=O)C7=O)nn5)CC4)nc3)nc2N(C)C1=O (stereo not shown) [DB0646, N-(3-(7-((6-(4-((1-(5-((2-(2,6-Dioxopiperidin-3-yl)-1,3-dioxoisoindolin-4-yl)oxy)pentyl)-1H-1,2,3-triazol-4-yl)methyl)piperazin-1-v)pyridin-3-yl)amino)-1-methyl-2-oxo-1,4-dihydropyrimido[4,5-d]pyrimidin-3(2H)-yl)-4-methylphenyl)-3-(trifluoromethyl)benzamide]
logFC ([7]; CDK11A (Q9UQ88-1)): −0.868
logFC of CDK11A (Q9UQ88-1) [7]: −0.868

CC(C)(C)c1nc(-c2cccc(NS(=O)(=O)c3c(F)cccc3F)c2F)c(-c2ccnc(NCCOCCNC(=O)CCOCCOCCNc3cccc4c3C(=O)N(C3CCC(=O)NC3=O)C4=O)n2)s1 (stereo not shown) [DD.03.106]
logFC TESK2 (Q96S53-1) ([8]; direction of change down): −0.3831
logFC TESK2 ([8]; protein TESK2 (Q96S53-1), down): −0.3831

CC(C)S(=O)(=O)c1ccccc1Nc1nc(Nc2ccc(N3CCN(CCOCCOCCNC(=O)CNc4cccc5c4C(=O)N(C4CCC(=O)NC4=O)C5=O)CC3)cc2)ncc1Cl (stereo not shown) [TL12.186]
logFC EEF2K (O00418) ([9]; direction of change down): −0.3443
logFC EEF2K ([9]; protein EEF2K (O00418), down): −0.3443

C=CCn1c(=O)c2cnc(Nc3ccc(N4CCN(CCCNc5cccc6c5C(=O)N(C5CCC(=O)NC5=O)C6=O)CC4)cc3)nc2n1-c1cccc(C(C)(C)O)n1 (stereo not shown) [ZNL.02.096]
logFC TBCK (Q8TEA7) ([10]; direction of change down): −0.3334
logFC TBCK ([10]; protein TBCK (QSTEA7), down): −0.3334

Cc1ccc(NC(=O)c2cccc(C(F)(F)F)c2)cc1N1Cc2cnc(Nc3ccc(N4CCN(CCCCCCOc5cccc6c5C(=O)N(C5CCC(=O)NC5=O)C6=O)CC4)nc3)nc2N(C)C1=O (stereo not shown) [DB0663]
logFC DGKD [11]: −0.5955

Nc1ncc(-c2ccc(S(=O)(=O)N(CCCNC(=O)CCOCCOCCOCCOCCOCCNc3cccc4c3C(=O)N(C3CCC(=O)NC3=O)C4=O)C3CC3)cc2)cc1-c1ccc2c(c1)CCNC2=O (stereo not shown) [WH.10417.099]
logFC MINK1 (Q8N4C8-1) ([12]; direction of change down): −0.5661
logFC MINK1 ([12]; protein MINK1 (Q8N408-1), down): −0.5661
